Experimental data: PubChem BioAssay AID248 (DTP/NCI, 2004)
“And” between values parts separate entries of the source, which are not always exact repeats. Equal entries are not always repeated. Toxic doses and inconclusive results are not listed.

Tested on: L1210 leukemia ip in BDF1 mice, survival T/C
Assay: NCI In Vivo Anticancer Drug Screen. Data for tumor model L1210 Leukemia (intraperitoneal) in B6D2F1 (BDF1) mice
Conditions: endpoint: mean survival time, higher = longer survival
Outline: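 Transplanted-tumor mice were given test agent; controls received vehicle only. Survival readings from the two groups were divided (treated over control).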

[1] = dose: 6.25 mg/kg/injection, schedule: Q04DX003 (ip), vehicle: saline
[2] = dose: 12.5 mg/kg/injection, schedule: Q04DX003 (ip), vehicle: saline
[3] = dose: 25.0 mg/kg/injection, schedule: Q04DX003 (ip), vehicle: saline
[4] = dose: 100.0 mg/kg/injection, schedule: Q04DX003 (ip), vehicle: saline
[5] = dose: 200.0 mg/kg/injection, schedule: Q04DX003 (ip), vehicle: saline
[6] = dose: 400.0 mg/kg/injection, schedule: Q04DX003 (ip), vehicle: saline
[7] = dose: 25.0 mg/kg/injection, schedule: Q01DX009 (ip), vehicle: saline with Tween-80
[8] = dose: 100.0 mg/kg/injection, schedule: Q01DX009 (ip), vehicle: saline with Tween-80
[9] = dose: 100.0 mg/kg/injection, schedule: Q04DX003 (ip), vehicle: Klucel (hydroxypropylcellulose) (HPC)
[10] = dose: 200.0 mg/kg/injection, schedule: Q01DX009 (ip), vehicle: saline with Tween-80
[11] = dose: 200.0 mg/kg/injection, schedule: Q04DX003 (ip), vehicle: Klucel (hydroxypropylcellulose) (HPC)
[12] = dose: 400.0 mg/kg/injection, schedule: Q04DX003 (ip), vehicle: Klucel (hydroxypropylcellulose) (HPC)
[13] = dose: 100.0 mg/kg/injection, schedule: Q01DX001 (ip), vehicle: saline
[14] = dose: 200.0 mg/kg/injection, schedule: Q01DX001 (ip), vehicle: saline
[15] = dose: 400.0 mg/kg/injection, schedule: Q01DX001 (ip), vehicle: saline

Structure (SMILES): FC(F)(F)c1ccc2c(c1)N(CCCN1CCN(CCOCCCl)CC1)c1ccccc1S2
- T/C (dose: 0.19 mg/kg/injection, schedule: Q01DX009 (ip), vehicle: saline): 104 % of control
- T/C (dose: 0.39 mg/kg/injection, schedule: Q01DX009 (ip), vehicle: saline): 94 % of control
- T/C (dose: 0.78 mg/kg/injection, schedule: Q01DX009 (ip), vehicle: saline): 98 % of control
- T/C (dose: 1.17 mg/kg/injection, schedule: Q04DX003 (ip), vehicle: saline): 101 % of control
- T/C (dose: 1.56 mg/kg/injection, schedule: Q01DX009 (ip), vehicle: saline): 107 % of control
- T/C (dose: 2.34 mg/kg/injection, schedule: Q04DX003 (ip), vehicle: saline): 95 % of control
- T/C (dose: 3.12 mg/kg/injection, schedule: Q01DX009 (ip), vehicle: saline): 89 % of control
- T/C (dose: 4.68 mg/kg/injection, schedule: Q04DX003 (ip), vehicle: saline): 98 % of control
- T/C [1]: 108 % of control
- T/C (dose: 9.9 mg/kg/injection, schedule: Q01DX001 (ip), vehicle: saline): 97 % of control
- T/C [2]: 119 % of control
- T/C (dose: 15.0 mg/kg/injection, schedule: Q01DX001 (ip), vehicle: saline): 102 % of control
- T/C (dose: 22.5 mg/kg/injection, schedule: Q01DX001 (ip), vehicle: saline): 103 % of control
- T/C [3]: 122 % of control
- T/C (dose: 50.0 mg/kg/injection, schedule: Q04DX003 (ip), vehicle: saline): 90 % of control

Structure (SMILES): O=C(CBr)CCS(=O)(=O)c1ccc(Cl)cc1
- T/C (dose: 5.0 mg/kg/injection, schedule: Q01DX009 (ip), vehicle: saline with Tween-80): 102 % of control
- T/C (dose: 5.0 mg/kg/injection, schedule: Q04DX003 (ip), vehicle: saline with Tween-80): 101 % of control
- T/C (dose: 10.0 mg/kg/injection, schedule: Q01DX009 (ip), vehicle: saline with Tween-80): 104 % of control
- T/C (dose: 10.0 mg/kg/injection, schedule: Q04DX003 (ip), vehicle: saline with Tween-80): 103 % of control
- T/C (dose: 20.0 mg/kg/injection, schedule: Q01DX009 (ip), vehicle: saline with Tween-80): 97 % of control
- T/C (dose: 20.0 mg/kg/injection, schedule: Q04DX003 (ip), vehicle: saline with Tween-80): 97 % of control

Structure (SMILES): N#CS/C=C\C(N)=O
- T/C (dose: 3.0 mg/kg/injection, schedule: Q01DX009 (ip), vehicle: Klucel (hydroxypropylcellulose) (HPC)): 94 % of control
- T/C (dose: 6.0 mg/kg/injection, schedule: Q01DX009 (ip), vehicle: Klucel (hydroxypropylcellulose) (HPC)): 108 % of control
- T/C (dose: 12.0 mg/kg/injection, schedule: Q01DX009 (ip), vehicle: Klucel (hydroxypropylcellulose) (HPC)): 106 % of control
- T/C (dose: 12.5 mg/kg/injection, schedule: Q01DX009 (ip), vehicle: Klucel (hydroxypropylcellulose) (HPC)): 104 % of control
- T/C (dose: 12.5 mg/kg/injection, schedule: Q04DX003 (ip), vehicle: Klucel (hydroxypropylcellulose) (HPC)): 90 % of control

Structure (SMILES): O=[N+]([O-])c1ccc(OCc2cc(S(=O)(=O)F)ccc2Cl)c(Cl)c1
- T/C (dose: 75.0 mg/kg/injection, schedule: Q04DX003 (ip), vehicle: gum acacia): 100 % of control
- T/C (dose: 150.0 mg/kg/injection, schedule: Q04DX003 (ip), vehicle: gum acacia): 96 % of control
- T/C (dose: 300.0 mg/kg/injection, schedule: Q04DX003 (ip), vehicle: gum acacia): 91 % of control

Structure (SMILES): Cc1ccc(C(C)C)c(OCCNC2=NCCN2)c1
- T/C (dose: 6.25 mg/kg/injection, schedule: Q01DX009 (ip), vehicle: saline): 97 % of control
- T/C [1]: 97 % of control
- T/C (dose: 12.5 mg/kg/injection, schedule: Q01DX009 (ip), vehicle: saline): 104 % of control
- T/C [2]: 92 % of control
- T/C (dose: 25.0 mg/kg/injection, schedule: Q01DX009 (ip), vehicle: saline): 97 % of control
- T/C [3]: 97 % of control

Structure (SMILES): CCCCOC(=O)c1ccc(NC(=O)C(Cl)Cl)cc1
- T/C [4]: 99 % of control
- T/C [5]: 89 % of control
- T/C [6]: 89 % of control

Structure (SMILES): O=[N+]([O-])c1ccc(O)c(Br)c1
- T/C (dose: 6.25 mg/kg/injection, schedule: Q01DX009 (ip), vehicle: saline with Tween-80): 95 % of control
- T/C (dose: 12.5 mg/kg/injection, schedule: Q01DX009 (ip), vehicle: saline with Tween-80): 101 % of control
- T/C (dose: 25.0 mg/kg/injection, schedule: Q01DX009 (ip), vehicle: carboxymethylcellulose (CMC)): 90 % of control
- T/C [7]: 93 % of control

Structure (SMILES): CC(=O)NCc1ccccc1
- T/C [8]: 97 % of control
- T/C [9]: 95 % of control
- T/C [10]: 92 % of control
- T/C [11]: 100 % of control
- T/C (dose: 400.0 mg/kg/injection, schedule: Q01DX009 (ip), vehicle: saline with Tween-80): 100 % of control
- T/C [12]: 100 % of control

Structure (SMILES): CCNC(=O)N(Cc1ccccc1)Cc1ccccc1
- T/C [8]: 98 % of control
- T/C [10]: 93 % of control

Structure (SMILES): Cc1cc2cc3n(c2nn1)N=C(Cl)CC3
- T/C (dose: 80.0 mg/kg/injection, schedule: Q04DX002 (ip), vehicle: Klucel (hydroxypropylcellulose) (HPC)): 106 % of control
- T/C (dose: 160.0 mg/kg/injection, schedule: Q04DX002 (ip), vehicle: Klucel (hydroxypropylcellulose) (HPC)): 118 % of control
- T/C (dose: 320.0 mg/kg/injection, schedule: Q04DX002 (ip), vehicle: Klucel (hydroxypropylcellulose) (HPC)): 168 % of control

Structure (SMILES): CCOc1cc(C2=NNc3n[nH]c(=S)n3N2)ccc1O
- T/C (dose: 100.0 mg/kg/injection, schedule: Q01DX009 (ip), vehicle: Klucel (hydroxypropylcellulose) (HPC)): 94 % of control
- T/C [9]: 96 % of control
- T/C (dose: 200.0 mg/kg/injection, schedule: Q01DX009 (ip), vehicle: Klucel (hydroxypropylcellulose) (HPC)): 98 % of control
- T/C [11]: 103 % of control
- T/C (dose: 400.0 mg/kg/injection, schedule: Q01DX009 (ip), vehicle: Klucel (hydroxypropylcellulose) (HPC)): 97 % of control
- T/C [12]: 102 % of control

Structure (SMILES): CC(=O)OC1/C=C/C(C)=C/CC(O)/C=C/C(C)=C/C(NC(=O)C(C)=O)C2(C)C(=O)OC(C1)C(C)C2=O (stereo not drawn)
- T/C (dose: 25.0 mg/kg/injection, schedule: Q01DX001 (ip), vehicle: saline with Tween-80): 102 % of control
- T/C [7]: 101 % of control
- T/C (dose: 50.0 mg/kg/injection, schedule: Q01DX001 (ip), vehicle: saline with Tween-80): 94 % of control
- T/C (dose: 50.0 mg/kg/injection, schedule: Q01DX009 (ip), vehicle: saline with Tween-80): 104 % of control
- T/C (dose: 100.0 mg/kg/injection, schedule: Q01DX001 (ip), vehicle: saline with Tween-80): 97 % of control
- T/C [8]: 103 % of control

Structure (SMILES): CCC(CC)NNC(CC)CC
- T/C (dose: 75.0 mg/kg/injection, schedule: Q01DX001 (ip), vehicle: other): 105 % of control
- T/C (dose: 75.0 mg/kg/injection, schedule: Q01DX001 (ip), vehicle: saline): 98 % of control
- T/C (dose: 150.0 mg/kg/injection, schedule: Q01DX001 (ip), vehicle: other): 98 % of control
- T/C (dose: 150.0 mg/kg/injection, schedule: Q01DX001 (ip), vehicle: saline): 96 % of control
- T/C (dose: 300.0 mg/kg/injection, schedule: Q01DX001 (ip), vehicle: other): 118 % of control

Structure (SMILES): CCCCC(=O)N/N=C/c1cc2c(cc1[N+](=O)[O-])OCO2 (tested in a mixture with another compound)
- T/C (dose: 100.0 mg/kg/injection, schedule: Q01DX001 (ip), vehicle: carboxymethylcellulose (CMC)): 91 % of control
- T/C (dose: 200.0 mg/kg/injection, schedule: Q01DX001 (ip), vehicle: carboxymethylcellulose (CMC)): 91 % of control
- T/C (dose: 400.0 mg/kg/injection, schedule: Q01DX001 (ip), vehicle: carboxymethylcellulose (CMC)): 91 % of control

Structure (SMILES): N#CCCS(=O)(=O)O
- T/C [13]: 100 % of control
- T/C (dose: 100.0 mg/kg/injection, schedule: Q01DX009 (ip), vehicle: saline): 98 % of control and 122 % of control
- T/C (dose: 100.0 mg/kg/injection, schedule: Q04DX002 (ip), vehicle: saline): 97 % of control
- T/C [4]: 95 % of control
- T/C [14]: 97 % of control
- T/C (dose: 200.0 mg/kg/injection, schedule: Q01DX009 (ip), vehicle: saline): 98 % of control and 108 % of control
- T/C (dose: 200.0 mg/kg/injection, schedule: Q04DX002 (ip), vehicle: saline): 106 % of control and 90 % of control
- T/C [5]: 103 % of control
- T/C [15]: 105 % of control
- T/C (dose: 400.0 mg/kg/injection, schedule: Q01DX009 (ip), vehicle: saline): 102 % of control and 108 % of control
- T/C (dose: 400.0 mg/kg/injection, schedule: Q04DX002 (ip), vehicle: saline): 87 % of control and 92 % of control
- T/C [6]: 97 % of control

Structure (SMILES): N#CC(C#N)=C(c1ccccc1)C1CCCCC1
- T/C [13]: 92 % of control
- T/C [14]: 94 % of control
- T/C [15]: 100 % of control
